Consider 19 compounds from PubChem BioAssay (NCI).

Among the test systems are NCI-H23 lung; NCI-H460 lung; ACHN renal; SF-539 CNS; SR leukemia; UO-31 renal; HOP-62 NSCLC; MALME-3M melanoma; OVCAR-3 ovarian; RPMI-8226 leukemia.
Assay in all cases: NCI tumour cell line growth inhibition, 48 h

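Cells were grown in 96-well plates and exposed to each compound for 48 hours at five concentrations; endpoints were interpolated linearly between bracketing concentrations, or set to the highest concentration if not reached. GI50 is the concentration that inhibits growth by half. TGI: concentration producing complete growth inhibition.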

As to `C(=C\c1ccncc1)/c1ccncc1`, the GI50 was more than 100 µM in the assay on NCI-H23 lung; more than 100 µM in the assay on NCI-H460 lung; more than 100 µM in the assay with ACHN renal; more than 100 µM in the assay with SF-539 CNS; more than 100 µM in the assay on SR leukemia; 50.5 µM with UO-31 renal. The GI50 in the assay on HOP-62 NSCLC, with MALME-3M melanoma and with OVCAR-3 ovarian was more than 100 µM throughout. Moreover, the TGI in the assay with NCI-H23 lung, with NCI-H460 lung, with ACHN renal, in the assay with SF-539 CNS, in the assay on SR leukemia and with UO-31 renal was more than 100 µM throughout. Further, the TGI with HOP-62 NSCLC, in the assay with MALME-3M melanoma and in the assay on OVCAR-3 ovarian was more than 100 µM each time.

As to `CCOC(=O)/C(C#N)=C\Sc1ccccc1`, the TGI is more than 100 µM in the assay on NCI-H23 lung; 83.1 µM in the assay with NCI-H460 lung; 47.1 µM in the assay with ACHN renal; 30.1 µM in the assay on SF-539 CNS; 45.2 µM in the assay with SR leukemia; 24.1 µM with UO-31 renal. In addition, the TGI with HOP-62 NSCLC is 86.5 µM; with RPMI-8226 leukemia it was more than 100 µM; in the assay on OVCAR-3 ovarian, 39.2 µM.

For the compound `CCCS(=O)c1nc(COC(=O)NC)c(COC(=O)NC)n1C` (stereo unspecified), the TGI in the assay on NCI-H23 lung, in the assay on NCI-H460 lung, in the assay on SF-539 CNS, in the assay with SR leukemia, with UO-31 renal and in the assay with HOP-62 NSCLC was more than 100 µM each time. Further, the TGI in the assay with MALME-3M melanoma, with RPMI-8226 leukemia and in the assay on OVCAR-3 ovarian was more than 100 µM each time.

For the compound `N#CC(C(=N/O)/C(=N\O)C(C#N)c1ccccc1)c1ccccc1` (stereo unspecified), the TGI with NCI-H23 lung, with NCI-H460 lung, in the assay on ACHN renal, in the assay on SF-539 CNS, in the assay on UO-31 renal and in the assay on HOP-62 NSCLC was more than 100 µM in each case. Further, the TGI in the assay with MALME-3M melanoma, with RPMI-8226 leukemia and with OVCAR-3 ovarian was more than 100 µM in each case.

Take `Cn1c2c(c3ccccc3c1=O)C(=O)c1ccccc1-2`: the TGI was more than 100 µM in the assay with NCI-H23 lung; 59.1 µM in the assay with SF-539 CNS; more than 100 µM in the assay on SR leukemia; more than 100 µM in the assay on UO-31 renal; more than 100 µM in the assay with HOP-62 NSCLC; more than 100 µM in the assay with MALME-3M melanoma. Also, the TGI in the assay on RPMI-8226 leukemia and in the assay with OVCAR-3 ovarian was more than 100 µM each time.

With `CCCCCN(CCCCC)C(=O)[C@H](CCC(=O)O)NC(=O)c1cc2ccccc2[nH]1`, the TGI in the assay on NCI-H23 lung was 85.8 µM; with NCI-H460 lung it was more than 100 µM; with ACHN renal, more than 100 µM; in the assay with SF-539 CNS it was more than 100 µM; in the assay on UO-31 renal it was more than 100 µM; in the assay with HOP-62 NSCLC, more than 100 µM. The TGI was more than 100 µM in the assay with MALME-3M melanoma, 54.8 µM in the assay with RPMI-8226 leukemia and more than 100 µM in the assay on OVCAR-3 ovarian.

Turning to `CC(=O)c1ccc2c3c1[C@H]1O[C@H]1c1cccc(c1-3)[C@@H]1O[C@H]21`, the TGI in the assay with NCI-H23 lung is 3.42 µM; in the assay on ACHN renal, 3.79 µM; with SR leukemia, more than 100 µM; with UO-31 renal it was 3.41 µM; with HOP-62 NSCLC it was 8.83 µM; with MALME-3M melanoma, 3.07 µM. The TGI in the assay with RPMI-8226 leukemia stood at 8.35 µM; in the assay with OVCAR-3 ovarian, 12.1 µM.

With `O=C1c2ccn(CCCNC(CO)(CO)CO)c2C(=O)c2c1c(O)c1ccccc1c2O`, the GI50 with NCI-H23 lung was 15.2 µM; with NCI-H460 lung it was 10.2 µM; with ACHN renal, 13.6 µM; with SF-539 CNS, 11.4 µM; in the assay with UO-31 renal, 13.4 µM; in the assay on HOP-62 NSCLC, 2.43 µM. The GI50 in the assay on MALME-3M melanoma was 22.7 µM; with RPMI-8226 leukemia, 22.3 µM; with OVCAR-3 ovarian it was 6.71 µM. Further, the TGI in the assay with NCI-H23 lung worked out at 30.5 µM; in the assay with NCI-H460 lung it was 29.3 µM; with ACHN renal it was 28.2 µM; in the assay with SF-539 CNS it was 25.6 µM; with UO-31 renal it was 30.3 µM; in the assay on HOP-62 NSCLC, 17.9 µM. Also, the TGI in the assay on MALME-3M melanoma is 74.3 µM; in the assay with RPMI-8226 leukemia it was more than 69.7 µM; in the assay with OVCAR-3 ovarian it was 21.6 µM.

Turning to `COc1cccc2c(SCC(=O)Nc3ccccc3-c3ccccc3NC(=O)CSc3c4ccccc4nc4c(OC)cccc34)c3ccccc3nc12`, the TGI in the assay with NCI-H23 lung, in the assay on NCI-H460 lung, with ACHN renal, in the assay on SF-539 CNS, with SR leukemia and with HOP-62 NSCLC was more than 100 µM in each case. In the assay with OVCAR-3 ovarian, this compound returned a TGI of more than 100 µM.

Consider `C=C(C)C1CCC2=CC(CC3(C)OC3C3=CC(C(=O)OC)=C(C1)O3)OC2=O` (stereo unspecified), for which the TGI with NCI-H23 lung, in the assay with NCI-H460 lung, in the assay on ACHN renal, with SF-539 CNS, in the assay on SR leukemia and in the assay with UO-31 renal was more than 100 µM throughout. Further, the TGI with HOP-62 NSCLC, in the assay on MALME-3M melanoma and in the assay on OVCAR-3 ovarian was more than 100 µM each time.

In the case of `C[C@]12Cc3conc3C(O)=C1CC[C@@H]1C2CC[C@@]2(C)C1CC[C@]2(C)O` (stereo partly specified), the TGI in the assay on NCI-H23 lung stood at 49.9 µM; with NCI-H460 lung, 36.3 µM; in the assay with ACHN renal, 89.5 µM; in the assay with SF-539 CNS, 60.6 µM; in the assay on UO-31 renal, 50.3 µM; in the assay with HOP-62 NSCLC, 64.2 µM. In addition, the values for the TGI with MALME-3M melanoma, in the assay on RPMI-8226 leukemia and in the assay with OVCAR-3 ovarian were 59.2 µM, 22.7 µM and 80.7 µM, respectively.

Turning to `COc1ccc(NC(=O)c2oc3cc(O)ccc3c(=O)c2C)c([N+](=O)[O-])c1`, the TGI in the assay on NCI-H23 lung, with NCI-H460 lung, in the assay on ACHN renal, with SF-539 CNS, in the assay on SR leukemia and with UO-31 renal was more than 100 µM throughout. Further, the TGI with HOP-62 NSCLC, in the assay on MALME-3M melanoma and in the assay on OVCAR-3 ovarian was more than 100 µM each time.

Take `Nn1c(-c2cccc(Cl)c2)nc2ccccc2c1=O`: the TGI with NCI-H23 lung, in the assay on NCI-H460 lung, in the assay on ACHN renal, with SF-539 CNS, in the assay on UO-31 renal and with HOP-62 NSCLC was more than 100 µM each time. Further, the TGI in the assay with MALME-3M melanoma, with RPMI-8226 leukemia and in the assay on OVCAR-3 ovarian was more than 100 µM each time.

For the compound `O=C1CC(Cc2n[nH]c3c2CCCC3)CC(=O)N1`, the TGI in the assay with NCI-H23 lung, in the assay with SF-539 CNS, in the assay on SR leukemia, in the assay with HOP-62 NSCLC, in the assay on MALME-3M melanoma and with RPMI-8226 leukemia was more than 100 µM in each case. The same compound displayed a TGI in the assay with OVCAR-3 ovarian of more than 100 µM.

Consider `CCC[CH2][Sn]([CH2]CCC)([O]C(=O)c1cc(F)ccc1F)[O]C(=O)c1cc(F)ccc1F`, for which the GI50 is 0.731 µM in the assay with NCI-H23 lung; 1.85 µM in the assay on NCI-H460 lung; 1.4 µM with ACHN renal; 1.4 µM in the assay with SF-539 CNS; 0.502 µM in the assay with SR leukemia; 1.47 µM in the assay with UO-31 renal. Moreover, the GI50 in the assay with HOP-62 NSCLC was 2.39 µM; in the assay with MALME-3M melanoma, 0.703 µM; in the assay with OVCAR-3 ovarian, 1.33 µM. Also, the TGI in the assay on NCI-H23 lung was 2.02 µM; with NCI-H460 lung, 3.56 µM; in the assay on ACHN renal it was 2.7 µM; in the assay on SF-539 CNS, 2.81 µM; in the assay with SR leukemia it was 8.74 µM; in the assay on UO-31 renal, 2.79 µM. In addition, the TGI with HOP-62 NSCLC is 4.04 µM; in the assay on MALME-3M melanoma, 2.1 µM; in the assay on OVCAR-3 ovarian, 2.61 µM.

On to `O=C(COC(=O)c1cccc2c(=O)c3ccccc3[nH]c12)Nc1ccc(Cl)cc1`, for which the TGI in the assay on NCI-H23 lung was 64.2 µM; in the assay on NCI-H460 lung, more than 100 µM; with ACHN renal, more than 100 µM; with SF-539 CNS, more than 100 µM; with SR leukemia, more than 100 µM; with UO-31 renal it was more than 100 µM. In addition, the TGI was 78.5 µM in the assay on HOP-62 NSCLC, more than 100 µM in the assay with MALME-3M melanoma and more than 100 µM in the assay on OVCAR-3 ovarian.

Consider `CC1=CC(C)(C)Nc2ccc(Cc3ccc4c(c3)C(C)=CC(C)(C)N4)cc21`, for which the GI50 was 4.54 µM with NCI-H23 lung; 12 µM with NCI-H460 lung; 11.1 µM with ACHN renal; 23.6 µM in the assay on SF-539 CNS; 7.27 µM with UO-31 renal; 21.3 µM in the assay on HOP-62 NSCLC. The GI50 in the assay with MALME-3M melanoma was 11.8 µM; in the assay on RPMI-8226 leukemia it was 2.02 µM; with OVCAR-3 ovarian, 6.4 µM. The TGI in the assay with NCI-H23 lung is more than 100 µM; with NCI-H460 lung, 55.1 µM; in the assay with ACHN renal, more than 100 µM; in the assay with SF-539 CNS it was 89.3 µM; in the assay on UO-31 renal, 65.8 µM; in the assay on HOP-62 NSCLC, more than 100 µM. In addition, the TGI in the assay with MALME-3M melanoma came to 42 µM; in the assay with RPMI-8226 leukemia it was 23.5 µM; in the assay on OVCAR-3 ovarian, 21.3 µM.

As for `Cc1ccc(C2[C@H]3C(=O)N(c4ccc(Cc5ccc(N6C(=O)[C@@H]7ON(c8ccccc8)C(c8ccc(C)cc8)[C@@H]7C6=O)cc5)cc4)C(=O)[C@H]3ON2c2ccccc2)cc1` (stereo partly specified), the TGI in the assay with NCI-H23 lung, in the assay on NCI-H460 lung, with ACHN renal, in the assay on SF-539 CNS, in the assay on UO-31 renal and in the assay on HOP-62 NSCLC was more than 100 µM in each case. Moreover, the TGI in the assay on MALME-3M melanoma, in the assay with RPMI-8226 leukemia and in the assay on OVCAR-3 ovarian was more than 100 µM each time.

`Cc1ccc(C)c(NC(=O)C(=O)C2C(=O)N(c3ccccc3)N=C2N)c1` (stereo unspecified): the TGI with NCI-H23 lung, in the assay with NCI-H460 lung, in the assay with ACHN renal, in the assay on SF-539 CNS, in the assay on UO-31 renal and in the assay with HOP-62 NSCLC was more than 100 µM in each case. The TGI with MALME-3M melanoma, in the assay with RPMI-8226 leukemia and in the assay with OVCAR-3 ovarian was more than 100 µM throughout.
